One experiment concerns the target T1, SLC9A1 (Homo sapiens, UniProt P19634).
T1 construct: endogenous in cells; host or cells: HAP1, KBM7 (WT and CRBN knockout)
Nature of the experiment: Degradation of endogenous SLC9A1 (immunoblot). Format: cell-based. The procedure:
(B) HAP1 and KBM7 cells were treated with different concentrations of d9A1-2.
(C)Both WT and CRBN knockout KBM7 cell lines were treated with 1 µM d9A1-2 for 16 hours.
(D) Chemical “rescue” of d9A1-2 driven degradation. WT KBM7 cell lines were treated with 0.5 µM d9A1-2 for 16 hours. These cells were also treated with bortezomib (bort. 0.25 µM), MG-132 (MG, 1 µM), MLN4924 (MLN,1 µM), pomalidomide (poma., 1 µM), or bafilomycin A1 (bafi., 10 µM). All molecules, apart from bafilomycin, could rescue SLC9A1 from degradation.
(B) HAP1 cells were treated with a dose curve of the warhead, d9A1-1, d9A1-2, d9A1-3, d9A1-4, for 24 hours.
(C) KBM7 cells were treated with varying concentrations of d9A1-2.
HEK293T, LS180 were obtained from ATCC (Manassas, VA, USA), HAP1 WT, HAP1 -/-SLC38A2 (HZGHC001975c003), HAP1 -/-SLC38A9 (HZGHC000777c011) were obtained from Horizon Genomics. Other cell lines utilized here: CAKI (a gift of Georg Winter’s lab), SW620, SW480 (both a gift from Walter Berger’s lab, Medical University Vienna), LOVO, HCT15 (both a gift from Chris Gasche), KBM7 (a gift from Thijn Brummelkamp’s lab), KBM7 -/- CRBN was described in Mayor-Ruiz et al. Cells were cultured, according to the ATCC recommendation in DMEM, RPMI or IMDM medium (Gibco) supplemented with 10% (v/v) FBS and antibiotics (100 U/ml penicillin and […] streptomycin). Knock-in single cell clones of dTAG-HA SLC38A2 HAP1 cell line were generated as previously described. For starvation, culture media was replaced with media without amino acids or FBS.
For immunoblotting, whole cell extracts were prepared using RIPA lysis buffer (25 mM Tris/HCl pH 7.6, 150 mM NaCl, 1% NP-40, 1% sodium deoxycholate, 0.1% SDS, EDTA-free protease inhibitor (Roche) and phosphatase inhibitors 2+3 (Sigma- Aldrich)). Cell extracts were incubated for 15 min on ice in 50 µL RIPA buffer. Lysates were cleared by centrifugation (20,000 g, 10 min, 4° C.). Protein extracts were quantified and normalized using the BCA assay (Thermo Scientific). Where indicated, cleared lysates where treated with the enzyme PNGase (NEB) to deglycosylate the proteins. Lämmli Sample Buffer 4x was added to protein extract samples without boiling. Cell lysates were run on SDS-polyacrylamide gel in tris-glycine running buffer and transferred to nitrocellulose membranes Amersham Protran 0.45 µm (GE Healthcare), according to standard methods. The membranes were incubated with the antibodies indicated below and visualized with horseradish peroxidase-conjugated secondary antibodies (described below) using the ECL Western blotting system (Thermo Scientific). The following antibodies were used: GAPDH (Santa Cruz, sc-365062), Actin (Cyoskeleton Inc., #AAN01), HA (Covance, cat #MMS-101R), HA (Cell Signaling, #3724), HA7-HRP (Sigma, H6533), HA (Roche, #11867423001), SLC9A1 (Santa Cruz, sc-136239), SLC2A1 (Cell Signaling, #12939), SLC38A1 (Cell Signaling, #36057). Secondary antibody for imaging goat anti-Rat IgG Alexa Fluor 488 (ThermoFisher, A11006). The following secondary antibodies were used for immunoblotting: goat anti-mouse HRP (115-035-003, Jackson ImmunoResearch) and goat anti-rabbit HRP (111-035-003, Jackson ImmunoResearch).
MG132, Bortezomib, Pomalidomide were obtained from Selleckchem. MLN4924 was obtained from MedchemExpress. Bafilomycin was obtained from Enzo Life Sciences. dTAG13 was a generous gift from the Nathanael Gray laboratory, Dana Farber Cancer Institute. The d9A1 degrader series (warhead, d9A1-1 to d9A1-4) was synthesized by Wuxi AppTec. All chemicals were dissolved in DMSO (Sigma-Aldrich) and utilized at the concertation described in respective figures.

The target in the next experiment is T2, dTAG-HA SLC2A1 (Homo sapiens, UniProt P11166+Q96SW2).
T2 construct: expressed in transfected cells
T2 sequence (P11166 with tags, fused parts or gaps): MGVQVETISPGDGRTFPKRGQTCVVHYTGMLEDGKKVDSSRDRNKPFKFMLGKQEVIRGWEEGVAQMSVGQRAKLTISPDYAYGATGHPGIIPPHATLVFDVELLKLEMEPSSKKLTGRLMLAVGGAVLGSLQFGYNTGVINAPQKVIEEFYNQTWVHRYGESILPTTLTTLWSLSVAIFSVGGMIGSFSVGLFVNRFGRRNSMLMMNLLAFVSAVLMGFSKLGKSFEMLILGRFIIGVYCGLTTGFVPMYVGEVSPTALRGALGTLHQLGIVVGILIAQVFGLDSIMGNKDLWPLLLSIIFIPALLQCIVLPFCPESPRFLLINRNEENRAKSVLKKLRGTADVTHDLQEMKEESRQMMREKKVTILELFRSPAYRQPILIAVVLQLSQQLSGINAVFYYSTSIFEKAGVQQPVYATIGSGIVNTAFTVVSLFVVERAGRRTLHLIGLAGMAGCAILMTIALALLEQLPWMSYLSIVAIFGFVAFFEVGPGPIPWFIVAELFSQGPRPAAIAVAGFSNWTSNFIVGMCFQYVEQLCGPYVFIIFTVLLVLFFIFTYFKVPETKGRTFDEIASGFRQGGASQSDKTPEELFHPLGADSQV
T2 sequence (Q96SW2 whole entry): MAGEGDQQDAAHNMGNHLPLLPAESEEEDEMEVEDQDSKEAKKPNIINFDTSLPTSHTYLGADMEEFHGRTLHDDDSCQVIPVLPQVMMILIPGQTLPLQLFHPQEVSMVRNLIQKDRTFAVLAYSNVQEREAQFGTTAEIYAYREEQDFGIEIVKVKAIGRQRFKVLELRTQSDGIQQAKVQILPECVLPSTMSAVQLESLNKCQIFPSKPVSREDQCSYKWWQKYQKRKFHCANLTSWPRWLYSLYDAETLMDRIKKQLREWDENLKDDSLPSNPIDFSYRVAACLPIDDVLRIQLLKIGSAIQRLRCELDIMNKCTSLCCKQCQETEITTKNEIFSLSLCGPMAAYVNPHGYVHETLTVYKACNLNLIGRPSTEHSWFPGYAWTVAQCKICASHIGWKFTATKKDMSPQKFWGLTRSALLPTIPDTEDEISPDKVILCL
T2 sequence (Q16531 whole entry partner): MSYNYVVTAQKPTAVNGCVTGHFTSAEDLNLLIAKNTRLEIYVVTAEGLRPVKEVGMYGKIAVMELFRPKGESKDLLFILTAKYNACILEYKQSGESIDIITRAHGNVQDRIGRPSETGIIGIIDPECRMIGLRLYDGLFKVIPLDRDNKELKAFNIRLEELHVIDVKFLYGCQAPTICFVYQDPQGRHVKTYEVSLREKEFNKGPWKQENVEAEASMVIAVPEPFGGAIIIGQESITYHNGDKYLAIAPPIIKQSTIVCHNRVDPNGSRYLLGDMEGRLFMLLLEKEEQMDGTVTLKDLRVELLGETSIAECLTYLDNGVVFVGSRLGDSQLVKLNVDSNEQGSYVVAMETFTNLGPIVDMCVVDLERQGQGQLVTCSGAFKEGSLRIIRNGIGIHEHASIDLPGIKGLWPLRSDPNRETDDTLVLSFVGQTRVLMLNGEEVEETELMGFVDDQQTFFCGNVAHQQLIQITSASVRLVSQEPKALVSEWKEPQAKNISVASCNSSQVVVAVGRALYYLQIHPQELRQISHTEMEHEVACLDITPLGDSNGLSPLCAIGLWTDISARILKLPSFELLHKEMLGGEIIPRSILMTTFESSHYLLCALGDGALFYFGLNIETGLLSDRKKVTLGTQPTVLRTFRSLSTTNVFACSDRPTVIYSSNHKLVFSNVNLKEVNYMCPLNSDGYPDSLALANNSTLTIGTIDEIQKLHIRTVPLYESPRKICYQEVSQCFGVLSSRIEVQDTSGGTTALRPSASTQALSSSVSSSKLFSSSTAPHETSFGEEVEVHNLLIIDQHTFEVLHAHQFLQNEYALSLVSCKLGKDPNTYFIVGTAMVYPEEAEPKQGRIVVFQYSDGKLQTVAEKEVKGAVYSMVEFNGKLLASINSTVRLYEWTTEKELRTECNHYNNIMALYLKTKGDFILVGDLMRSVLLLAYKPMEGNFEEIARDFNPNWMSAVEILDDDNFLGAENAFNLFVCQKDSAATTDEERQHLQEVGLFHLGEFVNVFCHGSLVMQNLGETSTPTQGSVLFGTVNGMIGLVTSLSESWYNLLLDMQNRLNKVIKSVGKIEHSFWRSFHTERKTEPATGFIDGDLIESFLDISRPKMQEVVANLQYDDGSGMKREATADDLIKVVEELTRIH
Description: Targeted degradation of dTAG-tagged SLC2A1 (western blot). Format: cell-based. The following applies: HAP1, 0.5 µM, 24, 48 or 72 hours. On the procedure: (C)HAP1 cells expressing dTAG-HA SLC1A5, 2A3, 30A9, 35B2, MTCH2, and 33A1 were treated for 24 hours with 0.5 µM of dTAG7 or dTAG13, as indicated. HAP1 cells expressing dTAG-HA SLC2A1 and 16A1 were treated for 24 hrs with 0.5 µM of dTAG7. HAP1 cell lines expressing dTAG-HA SLC39A7, dTAG-HA SLC4A4, and SLC7A3-dTAG-HA were treated for 48 hrs with 0.5 µM of dTAG13.
SLC1A5, SLC2A1, SLC2A3, SLC16A1, SLC38A1, SLC38A2 were obtained as gateway-compatible pENTR/pDONR vectors from the Harvard PlasmID Repository. SLC39A7 was obtained from Dharmacon, GE Healthcare. The following vectors were synthesized by Genescript: SLC4A4, SLC7A3, SLC38A9, SLC25A1, SLC9A1, SLC9A2, SLC9A3, SLC9A4, SLC9A5, SLC9A6, SLC9A7, SLC9A8, and SLC9B2. […]
For immunoblotting, whole cell extracts were prepared using RIPA lysis buffer (25 mM Tris/HCl pH 7.6, 150 mM NaCl, 1% NP-40, 1% sodium deoxycholate, 0.1% SDS, EDTA-free protease inhibitor (Roche) and phosphatase inhibitors 2+3 (Sigma- Aldrich)). […] Protein extracts were quantified and normalized using the BCA assay (Thermo Scientific). […]
SLCs were ectopically expressed as fusions to a mutated FKBP domain, also known as the dTAG system. […]
On the technique in general: In western blotting, separated proteins are transferred to a membrane and probed.

A value given as a limit tells only on which side of the number the result lay.

T1 sequence (P19634 whole entry): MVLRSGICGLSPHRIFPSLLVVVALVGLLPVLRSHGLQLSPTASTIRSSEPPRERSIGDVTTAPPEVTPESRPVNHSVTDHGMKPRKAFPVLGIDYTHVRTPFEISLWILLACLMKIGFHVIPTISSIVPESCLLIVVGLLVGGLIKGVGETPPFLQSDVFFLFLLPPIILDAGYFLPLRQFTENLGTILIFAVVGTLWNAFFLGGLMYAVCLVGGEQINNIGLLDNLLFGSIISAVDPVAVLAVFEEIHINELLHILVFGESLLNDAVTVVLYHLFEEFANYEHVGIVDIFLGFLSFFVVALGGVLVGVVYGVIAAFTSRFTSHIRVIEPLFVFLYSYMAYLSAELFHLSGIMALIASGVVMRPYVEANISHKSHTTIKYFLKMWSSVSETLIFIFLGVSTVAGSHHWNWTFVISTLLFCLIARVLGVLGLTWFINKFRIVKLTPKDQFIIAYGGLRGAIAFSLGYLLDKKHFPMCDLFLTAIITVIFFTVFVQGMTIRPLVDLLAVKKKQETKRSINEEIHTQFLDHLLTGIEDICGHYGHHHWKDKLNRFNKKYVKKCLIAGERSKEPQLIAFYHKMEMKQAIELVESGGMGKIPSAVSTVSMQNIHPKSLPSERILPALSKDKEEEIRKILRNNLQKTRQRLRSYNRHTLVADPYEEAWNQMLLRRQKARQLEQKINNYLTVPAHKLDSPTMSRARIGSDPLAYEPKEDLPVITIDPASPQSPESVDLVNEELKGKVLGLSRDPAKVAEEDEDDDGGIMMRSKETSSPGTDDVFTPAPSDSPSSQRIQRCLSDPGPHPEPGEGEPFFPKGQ

With `Cc1cc(-c2ccc(C(=O)NCCOCCOCCOCCOCCNc3cccc4c3C(=O)N(C3CCC(=O)NC3=O)C4=O)cc2N2CCC(c3[nH]cnc3C)CC2)ccc1F` (stereo not drawn) [d9A1-2], the “degradation of endogenous SLC9A1” value at SLC9A1 (HAP1 and KBM7 cells) is on record as “degradation of endogenous SLC9A1 at sub-micromolar concentration”. Also, the “time within which degradation of SLC9A1 was observed” value at SLC9A1 (HAP1 and KBM7 cells, different concentrations) was no more than 8 h. Besides, the “SLC9A1 degradation, dose curve” value on SLC9A1 (HAP1 cells, 24 hours) is “most effective”. Also, the “SLC9A1 degradation in WT and CRBN knockout cells” value on SLC9A1 (KBM7 WT and CRBN knockout, 1 µM, 16 hours) is given as “observed in WT but not CRBN knockout”. The “SLC9A1 expression, time course” value at SLC9A1 (KBM7 cells, varying concentrations, 5, 7, 9 or 12 hours) is “Reduction of SLC9A1 expression was observed”.

For `CC[C@H](C(=O)N1CCCC[C@H]1C(=O)O[C@H](CCc1ccc(OC)c(OC)c1)c1ccccc1OCC(=O)NCCCOCCOCCOCCCNC(=O)COc1cccc2c1C(=O)N(C1CCC(=O)NC1=O)C2=O)c1cc(OC)c(OC)c(OC)c1` (stereo partly drawn) [dTAG7], on dTAG-HA SLC2A1, the “reversibility of degradation of the target SLC” value is on record as “reversible degradation”.

These data come from patent US20230241226A1, “COMPOUNDS FOR TARGETED DEGRADATION OF CARRIER PROTEINS AND USES THEREOF” (CeMM - Forschungszentrum für Molekulare Medizin GmbH, priority 2019, published 2023).
